{"source": "a melting point compilation (Tetko et al.; mined from patent text by program, amines drawn as free bases though some values may be those of a salt)"}
{"units": {"melting point": "°C"}}
{"smiles": "CCCc1nn(-c2ccc(C(F)(F)F)cn2)cc1CCCOc1c(CC(=O)O)cccc1OC", "melting point": "122 to 123"}
{"smiles": "CC(=C1SC(=O)NC1=O)c1ccc(OCCOc2c(-c3ccc(Cl)cc3)n(C)c3ccccc3c2=O)cc1", "melting point": "238 to 240"}
{"smiles": "O=[N+]([O-])c1ccc(Oc2cccc(Oc3ccc([N+](=O)[O-])c(O)c3)c2)cc1O", "melting point": "180 to 182"}
{"smiles": "O=c1oc2ccc(Cl)cc2c(Cl)c1Cl", "melting point": "133 to 135"}
{"smiles": "COC(=O)C(=O)c1ccccc1Oc1cc(Oc2ccccc2C#N)ncn1", "melting point": "96 to 97"}
{"smiles": "CC(C)(S)CN1CCN(c2ccc(C#N)cc2)CC1", "melting point": "92 to 94"}
{"smiles": "OCc1cccc(-c2csc(-c3cn([C@H]4CN5CCC4CC5)nn3)c2)c1", "melting point": 211}
{"smiles": "Cc1cc(Cl)c2cc(F)c(OCc3ccccc3)cc2n1", "melting point": "110 to 111"}
{"smiles": "O=C(Nc1cccc(Br)c1)Oc1ccccc1", "melting point": "88 to 90"}
{"smiles": "COc1ccc(C(=O)c2cc(-c3ccncc3)c(N3CCOCC3)s2)cc1", "melting point": 193}
{"smiles": "COC(=O)c1ccc(N2C(=O)CCC2(CO)CCO)c([N+](=O)[O-])c1", "note": "(stereo not drawn)", "melting point": "151 to 153"}
{"smiles": "CN1CCCc2ccc(NC(=O)/C=C/c3ccc(C(C)(C)C)cc3)cc21", "melting point": "200 to 202"}
{"smiles": "O=C(c1cccc([N+](=O)[O-])c1)N1CCOCC1", "melting point": "83.5 to 85"}
{"smiles": "Cc1sc(CCc2ccc(/C=C/CO)cc2)nc1-c1ccccc1", "melting point": "93 to 94"}
{"smiles": "CC(=O)Nc1ccc(C#CCCN2CC=C(c3ccccc3)CC2)nc1", "melting point": "158 to 160"}
{"smiles": "CCOC(=O)C1N=c2ccsc2=CN1N", "note": "(stereo not drawn)", "melting point": "139 to 141"}
{"smiles": "Clc1nc(OCc2ccccc2)c2[nH]cnc2n1", "melting point": "195 to 196"}
{"smiles": "COc1ccc(CC2CCN(CCS(=O)c3ccc4[nH]c(=O)oc4c3)CC2)cc1", "note": "(stereo not drawn)", "melting point": "169 to 170"}
{"smiles": "CCCCCCC(=Cc1ccc(-c2nnn[nH]2)cc1)C(OC)=C1SC(=S)NC1=O", "melting point": "> 300"}
{"smiles": "O=C(/C=C/c1ccc(O)cc1Cl)CC(=O)/C=C/c1ccc(O)cc1Cl", "melting point": "248 to 254"}
{"smiles": "N#COc1ccc(C2(c3ccc(OC#N)cc3)OC(=O)c3ccccc32)cc1", "melting point": 130}
{"smiles": "C=CCn1cc2c(C3C(=O)Nc4ccc(C#N)cc43)ncnc2n1", "note": "(stereo not drawn)", "melting point": "> 300"}
{"smiles": "O=C(CCc1cnoc1-c1ccccc1)Nc1cnccn1", "melting point": "163 to 164"}
{"smiles": "O=C(NCCCCCCNC(=O)NS(=O)(=O)c1ccc(Br)o1)NS(=O)(=O)c1ccc(Br)o1", "melting point": "98 to 99"}
{"smiles": "CC(C)c1ccc(-c2cc(-c3cccc(C(=O)O)c3)ccn2)cc1", "melting point": "247 to 249"}
{"smiles": "CC(=O)Nc1nc(CN2CCN(C(c3ccccc3)c3ccc(Cl)cc3)CC2)cs1", "note": "(stereo not drawn)", "melting point": "140 to 145"}
{"smiles": "CCCCCCCCCCc1ccnc(C(=O)NCC(=O)OCC)c1", "melting point": "29 to 30"}
{"smiles": "CN1C(=O)[C@H](NC(=O)C=Cc2ccc(Cl)cc2)N=C(c2ccccc2)c2ccccc21", "melting point": "203 to 205"}
{"smiles": "COC(=O)c1ccc2c(c1)[C@@H](N1CCCC1=O)[C@H](O)C(C)(C)O2", "note": "(relative stereo)", "melting point": "190 to 192"}
{"smiles": "CC(=O)Nc1ccc(S(=O)(=O)Nc2ccn(C3CCCCC3)c(=O)n2)cc1", "melting point": "219 to 234"}
{"smiles": "O=C1C(=CO)CSc2ccc(Cl)cc21", "melting point": "103 to 104"}
{"smiles": "CCCc1nc(C)n2c(=O)n(CC(=O)O)nc2c1Cc1ccc(NC(=O)c2ccccc2S(=O)(=O)O)cc1", "melting point": "296 to 300"}
{"smiles": "CCCc1nn(C)c(C(N)=O)c1NC(=O)c1cc(S(=O)(=O)N2CCN(C)CC2)ccc1OCC", "melting point": "204 to 206"}
{"smiles": "CS(=O)(=O)c1ccc(-c2cnn(-c3ccc(F)c(Cl)c3)c(=O)c2-c2ccc(Cl)cc2)cc1", "melting point": 205}
{"smiles": "O=c1c(CCCc2cccnn2)cc2cccnc2n1-c1cccc([N+](=O)[O-])c1", "melting point": "234 to 235"}
{"smiles": "Cc1ccc(S(=O)(=O)NCc2ccccc2CC(=O)O)cc1", "melting point": "155 to 156"}
{"smiles": "O=C(Nc1ccc2ccc(Cl)nc2n1)c1ccccc1", "melting point": 198}
{"smiles": "Cc1c(Cl)c(N)cc(Cl)c1Oc1ccc(Cl)cc1Cl", "melting point": "96 to 97"}
{"smiles": "Nc1ccc2cnc(Nc3ccc(F)cc3)nc2n1", "melting point": "245 to 248"}
{"smiles": "C=CCCCc1cnc(-c2ccc(F)cc2)nc1", "melting point": 21.8}
{"smiles": "Cc1oc(C2(C)CCCCC2)nc1C(=O)O", "melting point": "128 to 129"}
{"smiles": "CC(C)(CO)c1ccc(C=O)c(O)c1", "melting point": "80.4 to 81.9"}
{"smiles": "CC(C)N(C=O)C(=O)c1nc(Cl)c(Cl)[nH]1", "melting point": 142}
{"smiles": "O=C(Nc1c[nH]nc1C(=O)NCCNc1ccccn1)c1ccccn1", "melting point": "260 to 262"}
{"smiles": "CC1(C)C(=O)Nc2cc3oc(-c4csnn4)nc3cc21", "melting point": "> 250"}
{"smiles": "O=C(O)COCCC1CCN(c2cnc(-c3ccccc3)c(-c3ccccc3)n2)CC1", "melting point": "173 to 174"}
{"smiles": "CCS(=O)(=O)Nc1nc(CCCN2CCN(C(c3ccccc3)c3ccccc3)CC2)cs1", "melting point": "162 to 164"}
{"smiles": "CCCNC(=O)C1(CCCCN2CCC(N3Cc4ccccc4C3=O)CC2)c2ccccc2-c2cccnc21", "note": "(stereo not drawn)", "melting point": "52 to 54"}
{"smiles": "COC(=O)CCCCCCCCCCCNC(=O)NC12CC3CC(CC(C3)C1)C2", "melting point": 75}
{"smiles": "COc1cc(Nc2c(C#N)cnc3cc(-c4cccc(CN5CCN(C)CC5)c4)ccc23)c(Cl)cc1Cl", "melting point": "104 to 106"}
{"smiles": "Nc1nc(N)nc(CNc2c(Br)cc(Br)cc2Br)n1", "melting point": "250 to 251"}
{"smiles": "COc1ccccc1N(CCN1CCC(C(=O)c2ccc(F)cc2)CC1)C(=O)c1ccc(CO)cc1", "melting point": "87 to 91"}
{"smiles": "COc1ccc(Cl)cc1[C@]1(F)C(=O)N(C(=O)NC(C)(C)C(=O)O)c2cc(C(F)(F)F)ccc21", "melting point": "57 to 60"}
{"smiles": "CC(=O)c1cc(S(=O)(=O)c2cccc(F)c2)ccc1O", "melting point": "164 to 165"}
{"smiles": "O=C(CCCCl)Nc1cn(-c2cccnc2)nc1Cl", "melting point": "97 to 98"}
{"smiles": "O=C(Nc1ccc(N2CCSCC2)c(F)c1)OCc1ccccc1", "melting point": 142}
{"smiles": "N#CS/C=C\\C(=O)OCc1ccccc1", "melting point": "48.5 to 50.5"}
{"smiles": "O=[N+]([O-])c1ccc2c(c1)C(Cc1ccncc1)(Cc1ccncc1)c1ccccc1-2", "melting point": "260 to 264"}
{"smiles": "CCc1c(-c2ccc(O)cc2)c2cc(C(C)=O)c3cc(OC)cc1n32", "melting point": "245 to 246"}
{"smiles": "CS(=O)(=O)NC(=O)c1ccccc1Nc1ccc(CCCc2ccc(Cl)c(Cl)c2)cc1", "melting point": "53 to 61"}
{"smiles": "O=C(NS(=O)(=O)c1ccccc1)c1cccc(C[C@@H]2COc3ccc(OCc4nc5cc(F)ccc5s4)cc3[C@@H]2O)c1", "melting point": "161 to 162"}
{"smiles": "COc1ccc(-c2cc3c(OC)cc(OC)cc3nc2OC)cc1", "melting point": "106 to 107"}
{"smiles": "CSc1ccc(-c2cc(C(F)(F)F)nn2-c2ccc(C#N)cc2)cc1", "melting point": "145 to 147"}
{"smiles": "O=c1[nH]c(=O)n(Cc2ccc(OCc3noc(-c4ccccc4)n3)cc2)o1", "melting point": "150 to 151"}
{"smiles": "CC(=O)N1CCN=C1C(O)(c1ccccc1)c1ccccn1", "note": "(stereo not drawn)", "melting point": "150 to 153"}
{"smiles": "CN(C)C(=O)N1CCc2ccc(S(=O)(=O)NC(=O)NC3CCCC3)cc2CC1", "melting point": "179 to 180"}
{"smiles": "CC(=O)NCCC1=C(C(C)C)Cc2cnc3c(c21)CCO3", "melting point": "164 to 166"}
{"smiles": "Cc1cccc(-c2[nH]c(C(C)C)nc2-c2cccc(-c3cccc(S(C)(=O)=O)c3)c2)n1", "melting point": "97 to 100"}
{"smiles": "NNc1cc2ccccc2[nH]1", "melting point": "165 to 167"}
{"smiles": "NC(=O)Cn1ccc2cccc(NC(c3ccc4c(cnn4-c4ccc(F)cc4)c3)C(F)(F)F)c21", "note": "(stereo not drawn)", "melting point": 105}
{"smiles": "COC(=O)C[C@H](O)C[C@H](O)CCc1c(-c2ccc(F)cc2)c(-c2ccc(F)cc2)c(C(=O)Nc2ccc(S(N)(=O)=O)cc2)n1C(C)C", "melting point": "106 to 108"}
{"smiles": "CC(=O)Oc1ccc(C(=O)O)cc1-c1ccccc1", "melting point": "185 to 187"}
{"smiles": "Cc1ccc(-c2ncn(-c3ccc(OC(F)(F)C(F)(F)F)cc3)n2)cc1", "melting point": "130 to 132"}
{"smiles": "CC(C)(C)OC(=O)N1C(C(=O)O)CSC1c1cccnc1", "note": "(stereo not drawn)", "melting point": "167 to 169"}
{"smiles": "CC(C)c1cccc(C(C)C)c1NC(=O)C(Cc1ccccc1)NC(=O)NC(C)(C)C", "note": "(stereo not drawn)", "melting point": "241 to 242"}
{"smiles": "CS(=O)(=O)c1ccc(Oc2cccc(C(=O)Nc3ccc(F)cc3)n2)cc1", "melting point": "134 to 135"}
{"smiles": "CN(CCN1C(=O)c2ccccc2S1(=O)=O)C1COc2ccccc2O1", "note": "(stereo not drawn)", "melting point": 181}
{"smiles": "O=C(Nc1cccnn1)N1CCN(c2nccc(-c3ccc(F)c(F)c3)n2)CC1", "melting point": "218 to 219"}
{"smiles": "O=Cc1ccc(OS(=O)(=O)C(F)(F)F)cc1Cl", "melting point": "125 to 127"}
{"smiles": "CC(=O)N1c2ccccc2C=Cc2ccccc21", "melting point": 121}
{"smiles": "N#Cc1cnc2sc(CCC(=O)O)cc2c1Nc1ccc2[nH]ccc2c1", "melting point": 255}
{"smiles": "CC(=O)OC1CCC2(C)C(=CCC3C2CCC2(C)C(C(C)CCCC(C)(C)C)CCC32)C1", "note": "(stereo not drawn)", "melting point": "152 to 153"}
{"smiles": "OCc1cc2ccccc2cc1CO", "melting point": "161 to 162"}
{"smiles": "COc1cccc(C(=O)Nc2ccc3ccc(OC)nc3n2)c1", "melting point": 135}
{"smiles": "COc1ccc(COc2c(C)c(C)c3c(c2C)C(c2ccc(N(C)C)cc2)C(C)(C)O3)cc1", "note": "(stereo not drawn)", "melting point": "105 to 107"}
{"smiles": "N#CSc1ccc(SCc2ncon2)cc1", "melting point": 78}
{"smiles": "CCCCc1nc(SC)c(C(=O)OCC)n1Cc1ccc(-c2nc3ccccn3c2C#N)cc1", "melting point": 168}
{"smiles": "Cc1ccnc(-c2cc(C)cc(C#N)n2)c1", "melting point": 132}
{"smiles": "O=C(O)c1cc(=O)c2c(I)cc(Cl)cc2[nH]1", "melting point": 298}
{"smiles": "CC(C)(C)C(NC(=O)c1cccc(Cl)c1)Nc1c(Nc2cnccn2)c(=O)c1=O", "note": "(stereo not drawn)", "melting point": "245 to 247"}
{"smiles": "COc1ccc(-c2nc(N3CCN(C)CC3)c3c(C)c(C#N)sc3n2)cc1", "melting point": "> 250"}
{"smiles": "COC(=O)/C=C/c1ccc(OCc2oc(-c3ccc(C(F)(F)F)cc3)nc2C)cc1C", "melting point": "124 to 126"}
{"smiles": "COC(=O)C(NC(C)=O)C(=O)OCCCl", "note": "(stereo not drawn)", "melting point": "81 to 82"}
{"smiles": "Cc1ccc(Nc2nc(-c3ccccc3)c(-c3nc4ccccc4c(=O)n3-c3ccc(Cl)cc3)s2)cc1", "melting point": "225 to 227"}
{"smiles": "Cc1cc(-c2nc3ccc(F)cc3s2)ccc1N", "melting point": "203 to 205"}
{"smiles": "Cc1oc(-c2ccccc2)nc1CCOc1ccc(CCC(N)=O)cc1", "melting point": "139 to 140"}
{"smiles": "Oc1ccc(CCc2cccc(O)c2)cc1", "melting point": 108}
{"smiles": "CCn1c(C(OCCO)(c2cccc(C(F)(F)F)c2)c2cccc(C(F)(F)F)c2)nc(-c2ccncc2)c1-c1ccc(Cl)cc1", "melting point": "222 to 223"}
